Test results reported in patent publication US8927700B2, “Catalytic domains from lysyl oxidase and LOXL2” (Gilead Biologics, Inc., priority 2009, dated 2015).

Molecular target: T1, catalytic domain of human LOXL2 (Homo sapiens, UniProt Q9Y4K0)
T1 construct: made in house; host or cells: 293F cells (HEK293 subclone), transient transfection; purified from culture supernatant on Ni-Sepharose
Assay: Amplex Red coupled peroxide assay of lysyl oxidase enzymatic activity (deamination of 1,5-diaminopentane)
Type: biochemical
Conditions: 1,5-diaminopentane substrate, 37° C., FIG. 5
Procedure: A polypeptide containing the catalytic domain of human LOXL2 was produced as described in Example 12 above. Enzymatic activity was assessed using a biochemical assay that couples the production of peroxide (liberated by LOXL2 after deamination of 1,5-diaminopentane) to the HRP-catalyzed conversion of Amplex® red to a fluorescent product (resorufin). Palamakumbura et al. (2002) Anal. Biochem. 300:245-251. Reaction plates were obtained from Corning. Amplex® Red reagent was from Invitrogen (Carlsbad, Calif.). Horseradish peroxidase (HRP), 1,5-diaminopentane, and antifoam were from Sigma (St. Louis, Mo.). All other reagents were of the highest quality available.
Enzyme mixture was assembled by adding 10 uL of pooled peak fractions (see Example 12) to 40 uL assay solution (62.5 mM sodium borate pH 8.0, 5 units/mL HRP, 10 ppm antifoam). Substrate solution contained 50 mM sodium borate, 100 uM Amplex® red reagent, 20 mM 1,5-diaminopentane, 10 ppm antifoam. The reaction was started by mixing 50 ul of enzyme mixture with 50 ul of substrate solution. […] Reaction mixtures were incubated, at 37° C., in a Molecular Devices M5 plate reader configured to measure fluorescence (ex=544 nm, em=590 nm) in kinetics mode for 1 hour. Data were recorded as the slope of the fluorescence response to time.

T1 sequence (Q9Y4K0 with tags, fused parts or gaps): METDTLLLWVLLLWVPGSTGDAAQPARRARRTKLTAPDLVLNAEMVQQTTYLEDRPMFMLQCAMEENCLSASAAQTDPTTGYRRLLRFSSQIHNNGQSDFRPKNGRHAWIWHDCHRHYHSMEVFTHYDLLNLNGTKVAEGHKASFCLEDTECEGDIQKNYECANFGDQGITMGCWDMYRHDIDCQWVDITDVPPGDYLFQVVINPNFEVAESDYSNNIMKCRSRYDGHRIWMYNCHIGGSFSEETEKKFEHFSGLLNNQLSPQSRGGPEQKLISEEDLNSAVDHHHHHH

Row | Compound | inhibition of the enzymatic activity of the human LOXL2-derived polypeptide (time course of resorufin production, RFU) (2 mM βAPN in reaction, kinetics mode for 1 hour) | enzymatic activity (time course of resorufin production, relative fluorescent units) (pooled peak fractions of purified polypeptide, 1 hour)
1 | N#CCCN [βAPN, beta-aminoproprionitrile] | inhibited | 
2 | human LOXL2-derived polypeptide: polypeptide containing the catalytic domain of human LOXL2 with myc epitope tag and His6 purification tag, produced in 293F cells |  | measurable enzymatic activity
